Experimental data published in patent US4009264A, “Complexes of polysaccharides or derivatives thereof with reduced glutathione and process for preparing said complexes” (Meito Sangyo Kabushiki Kaisha, priority 1975, dated 1977).
Values belong to the compound of their own block, whether it stands above or below them.

Tests used:
[1] = Auto-oxidation of other SH-containing compounds in the presence and absence of the complex (amperometric silver titration); assay type: physicochemical; conditions: 37° C.
Procedure: In these Figures, the axis of abscissa represents the incubating time in minutes, and the axis of ordinates, the SH redidual ratio (%) of the above compounds.
The above residual ratio is measured after dissolving the sample in a sodium phosphate buffer (0.1 m, pH 8.0) in the presence of copper sulfate (5 × 10^-^7 m), and incubating at 37° C. The SH content is measured by an amperometric silver titration.

[2] = Stability of the thiol group to auto-oxidation: residual ratio of the active SH group (residual activity); assay type: physicochemical; conditions: 40° C.
Procedure: The residual ratio of the active SH group, or simply called the residual activity, as used in this application is determined as follows:
The complex of this invention and other SH-containing compounds are incubated at a certain termperature in a sodium phosphate buffer (0.1 M, pH 8.0). Aliquotes are withdrawn at intervals and immediately the active SH group contents of the samples are determined. The maximum content obtained is made 100 (%), and the active SH group content of each of the samples is expressed in percentage based on this maximum content.

[3] = test system: damage of liver induced by D-galactosamine hydrochloride; assay: Prophylactic activity on damage of liver induced by D-galactosamine hydrochloride; assay type: in vivo, Wister female rats; conditions: administered beforehand; summary of Table 1
Procedure: The damage of liver was induced by administering D-galactosamine hydrochloride.
Wister female rats weighing 100 to 120 g (10 in a group) which had been fasted for 2 hours were used. Three groups were prepared. […] Still another group was administered only with 1 ml. of an isotonic sodium chloride solution. One hour after the administration, a solution obtained by dissolving 50 mg of D-glactosamine hydrochloride in 1 ml. of an isotonic sodium chloride solution and adjusting the pH of the solution to 7.0 with 0.1N sodium hydroxide was administered intraperitoneally.
After a lapse of 22 hours from the administration of D-galactosamine hydrochloride, blood was extracted from the abdominal aorta. GOT, GPT, bilirubin, and glucose in the plasma were measured. Furthermore, the liver was cut out, and its lipid and neutral fat were measured.

[4] = literature report; cited from earlier work

- SH residual ratio of cysteamine alone ([1]; 60 minutes, sodium phosphate buffer pH 8.0, copper sulfate 5 × 10^-7 M): zero
Compound: NCCS [cysteamine]

- SH residual ratio of penicillamine alone ([1]; 60 minutes, pH 8.0, copper sulfate 5 × 10^-7 M): about 15%
Compound: CC(C)(S)[C@@H](N)C(=O)O [penicillamine]

- residual ratio of the active SH group (residual activity of the reduced glutathione) ([2]; after 6 hours, sodium phosphate buffer 0.1 M pH 8.0, FeCl3 1.2 × 10^-5 M): about 40%
- residual ratio of the active SH group ([2]; after 8 hours, sodium phosphate buffer 0.1 M pH 8.0): about 20%
- SH residual ratio of reduced glutathione alone ([1]; 180 minutes, final concentration 1 × 10^-3 M, pH 8.0, copper sulfate 5 × 10^-7 M): about 20%
Compound: N[C@@H](CCC(=O)N[C@@H](CS)C(=O)NCC(=O)O)C(=O)O [reduced glutathione]
- inhibition of the D-galactosamine-induced increase (GOT, GPT, bilirubin, liver lipid, neutral fat) or decrease (glucose) [3]: inhibited

Compound: complex of dextran and insulin: literature complex of activated dextran and insulin (Acta Chem. Scand. 25, 1855-1859, 1971)
- activity relative to the free insulin [4]: 1/36
